Source: patent publication EP4617278A1, “NUCLEOTIDE ANALOG, AND COMPOSITION AND USE THEREOF” (priority 2022, dated 2024)

Test system: SARS-CoV-2 replicon
Type: cell-based
Conditions: read-out: SARS-CoV-2 Replicon (Huh-7cell) EC50

CCC(C)(C)COC(=O)[C@H](C)NP(=O)(OCOC(=O)OC(C)C)OC[C@H]1O[C@@](C#N)(c2ccc3c(N)ncnn23)[C@H](OC(=O)C(C)C)[C@@H]1OC(=O)C(C)C (mixture of isomers) [Compound 14, (2R,3R,4R,5R)-2-(4-aminopyrrolo[2,1-f][1,2,4]triazin-7-yl)-2-cyano-5-((((((S)-1-(2,2-dimethylbutoxy)-1-oxopropan-2-yl)amino)(((isopropoxycarbonyl)oxy)methoxy)phosphoryl)oxy)methyl)tetrahydrofuran-3,4-diyl bis(2-methylpropionate)] and CCC(CC)COC(=O)[C@H](C)N[P@](=O)(OCOC(=O)OC(C)C)OC[C@H]1O[C@@](C#N)(c2ccc3c(N)ncnn23)[C@H](OC(=O)C(C)C)[C@@H]1OC(=O)C(C)C [Compound 7a, (2R,3R,4R,5R)-2-(4-aminopyrrolo[2,1-f][1,2,4]triazin-7-yl)-2-cyano-5-((((R)-(((S)-1-(2-ethylbutoxy)-1-oxopropan-2-yl)amino)(((isopropoxycarbonyl)oxy)methoxy)phosphoryl)oxy)methyl)tetrahydrofuran-3,4-diyl bis(2-methylpropionate)] fall in the same range of EC50: 10 to 50 nM for the first, 10 to 50 nM for the second.

CC(C)C(=O)O[C@H]1[C@@H](OC(=O)C(C)C)[C@](C#N)(c2ccc3c(N)ncnn23)O[C@@H]1COP(=O)(OCCSC(=O)C(C)(C)C)Oc1ccc(C(C)(C)C)cc1 (mixture of isomers) [Compound 27, (2R,3R,4R,5R)-2-(4-aminopyrrolo[2,1-f][1,2,4]triazin-7-yl)-5-((((4-tert-butylphenoxy)(2-(pivaloylthio)ethoxy)phosphoryl)oxy)methyl)-2-cyanotetrahydrofuran-3,4-diyl bis(2-methylpropionate)] and CCC(CC)COC(=O)[C@H](C)N[P@](=O)(OCOC(=O)C(C)(C)C)OC[C@H]1O[C@@](C#N)(c2ccc3c(N)ncnn23)[C@H](OC(=O)C(C)C)[C@@H]1OC(=O)C(C)C [Compound 11a, (2R,3R,4R,5R)-2-(4-aminopyrrolo[2,1-f][1,2,4]triazin-7-yl)-2-cyano-5-((((R)-(((S)-1-(2-ethylbutoxy)-1-oxopropan-2-yl)amino)((pivaloyloxy)methoxy)phosphoryl)oxy)methyl)tetrahydrofuran-3,4-diyl bis(2-methylpropionate)] fall in the same range of EC50: 10 to 50 nM for the first, 10 to 50 nM for the second.

First: CCCCCCCCCCCCCCCCOCCCOP(=O)(OCOC(=O)OC(C)C)OC[C@H]1O[C@@](C#N)(c2ccc3c(N)ncnn23)[C@H](OC(=O)C(C)C)[C@@H]1OC(=O)C(C)C (mixture of isomers) [Compound 36, (2R,3R,4R,5R)-2-(4-aminopyrrolo[2,1-f][1,2,4]triazin-7-yl)-2-cyano-5-((((3-(hexadecyloxy)propoxy)(((isopropoxycarbonyl)oxy)methoxy)phosphoryl)oxy)methyl)tetr ahydrofuran-3,4-diyl bis(2-methylpropionate)]
Second: CCC(CC)COC(=O)[C@H](C)N[P@@](=O)(OCOC(=O)OC(C)C)OC[C@H]1O[C@@](C#N)(c2ccc3c(N)ncnn23)[C@H](OC(=O)C(C)C)[C@@H]1OC(=O)C(C)C [Compound 7b, (2R,3R,4R,5R)-2-(4-aminopyrrolo[2,1-f][1,2,4]triazin-7-yl)-2-cyano-5-((((S)-(((S)-1-(2-ethylbutoxy)-1-oxopropan-2-yl)amino)(((isopropoxycarbonyl)oxy)methoxy)phosphoryl)oxy)methyl)tetrahydrofuran-3,4-diyl bis(2-methylpropionate)]
The EC50 of the first is higher: 50 to 500 nM for the first, 10 to 50 nM for the second.

CCC(=O)O[C@H]1[C@@H](OC(=O)CC)[C@](C#N)(c2ccc3c(N)ncnn23)O[C@@H]1CO[P@](=O)(N[C@@H](C)C(=O)OC(C)C)OCOC(=O)OC(C)C [Compound 2a, (2R,3R,4R,5R)-2-(4-aminopyrrolo[2,1-f][1,2,4]triazin-7-yl)-2-cyano-5-((((R)-(((S)-1-isopropoxy-1-oxopropan-2-yl)amino)(((isopropoxycarbonyl)oxy)methoxy)phosphoryl)oxy)methyl)tetrahydrofuran-3,4-diyl dipropionate] and CCC(=O)O[C@H]1[C@@H](OC(=O)CC)[C@](C#N)(c2ccc3c(N)ncnn23)O[C@@H]1CO[P@@](=O)(N[C@@H](C)C(=O)OC(C)C)OCOC(=O)OC(C)C [Compound 2b, (2R,3R,4R,5R)-2-(4-aminopyrrolo[2,1-f][1,2,4]triazin-7-yl)-2-cyano-5-((((S)-(((S)-1-isopropoxy-1-oxopropan-2-yl)amino)(((isopropoxycarbonyl)oxy)methoxy)phosphoryl)oxy)methyl)tetrahydrofuran-3,4-diyl dipropionate] cannot be ordered by EC50: 5 to 10 nM for the first, ≤ 5 nM for the second.

First: CC(C)OC(=O)OCO[P@@](=O)(N[C@@H](C)C(=O)OC(C)C)OC[C@H]1O[C@@](C#N)(c2ccc3c(N)ncnn23)[C@H](OC(=O)C(C)C)[C@@H]1OC(=O)C(C)C [Compound 3a, (2R,3R,4R,5R)-2-(4-aminopyrrolo[2,1-f][1,2,4]triazin-7-yl)-2-cyano-5-((((R)-(((S)-1-isopropoxy-1-oxopropan-2-yl)amino)(((isopropoxycarbonyl)oxy)methoxy)phosphoryl)oxy)methyl)tetrahydrofuran-3,4-diyl bis(2-methylpropionate)]
Second: CC(C)OC(=O)OCO[P@](=O)(N[C@@H](C)C(=O)OC(C)C)OC[C@H]1O[C@@](C#N)(c2ccc3c(N)ncnn23)[C@H](OC(=O)C(C)C)[C@@H]1OC(=O)C(C)C [Compound 3b, (2R,3R,4R,5R)-2-(4-aminopyrrolo[2,1-f][1,2,4]triazin-7-yl)-2-cyano-5-((((S)-(((S)-1-isopropoxy-1-oxopropan-2-yl)amino)(((isopropoxycarbonyl)oxy)methoxy)phosphoryl)oxy)methyl)tetrahydrofuran-3,4-diyl bis(2-methylpropionate)]
The EC50 of the first is higher: 10 to 50 nM for the first, < 5 nM for the second.

CC(C)OC(=O)OCO[P@@](=O)(N[C@@H](C)C(=O)OC(C)C)OC[C@H]1O[C@@](C#N)(c2ccc3c(N)ncnn23)[C@H](OC(=O)C(C)(C)C)[C@@H]1OC(=O)C(C)(C)C [Compound 4a, (2R,3R,4R,5R)-2-(4-aminopyrrolo[2,1-f][1,2,4]triazin-7-yl)-2-cyano-5-((((R)-(((S)-1-isopropoxy-1-oxopropan-2-yl)amino)(((isopropoxycarbonyl)oxy)methoxy)phosphoryl)oxy)methyl)tetrahydrofuran-3,4-diyl bis(2,2-dimethylpropionate)] and CC(C)OC(=O)OCO[P@](=O)(N[C@@H](C)C(=O)OC(C)C)OC[C@H]1O[C@@](C#N)(c2ccc3c(N)ncnn23)[C@H](OC(=O)C(C)(C)C)[C@@H]1OC(=O)C(C)(C)C [Compound 4b, (2R,3R,4R,5R)-2-(4-aminopyrrolo[2,1-f][1,2,4]triazin-7-yl)-2-cyano-5-((((S)-(((S)-1-isopropoxy-1-oxopropan-2-yl)amino)(((isopropoxycarbonyl)oxy)methoxy)phosphoryl)oxy)methyl)tetrahydrofuran-3,4-diyl bis(2,2-dimethylpropionate)] fall in the same range of EC50: 50 to 500 nM for the first, 50 to 500 nM for the second.

CCC(=O)O[C@H]1[C@@H](OC(=O)CC)[C@](C#N)(c2ccc3c(N)ncnn23)O[C@@H]1CO[P@](=O)(N[C@@H](C)C(=O)OCC(CC)CC)OCOC(=O)OC(C)C [Compound 6a, (2R,3R,4R,5R)-2-(4-aminopyrrolo[2,1-f][1,2,4]triazin-7-yl)-2-cyano-5-((((R)-(((S)-1-(2-ethylbutoxy)-1-oxopropan-2-yl)amino)(((isopropoxycarbonyl)oxy)methoxy)phosphoryl)oxy)methyl)tetrahydrofuran-3,4-diyl dipropionate] and CCC(=O)O[C@H]1[C@@H](OC(=O)CC)[C@](C#N)(c2ccc3c(N)ncnn23)O[C@@H]1CO[P@@](=O)(N[C@@H](C)C(=O)OCC(CC)CC)OCOC(=O)OC(C)C [Compound 6b, (2R,3R,4R,5R)-2-(4-aminopyrrolo[2,1-f][1,2,4]triazin-7-yl)-2-cyano-5-((((S)-(((S)-1-(2-ethylbutoxy)-1-oxopropan-2-yl)amino)(((isopropoxycarbonyl)oxy)methoxy)phosphoryl)oxy)methyl)tetrahydrofuran-3,4-diyl dipropionate] cannot be ordered by EC50: 5 to 10 nM for the first, ≤ 5 nM for the second.

CCC(CC)COC(=O)[C@H](C)N[P@](=O)(OCOC(=O)C(C)(C)C)OC[C@H]1O[C@@](C#N)(c2ccc3c(N)ncnn23)[C@H](OC(C)=O)[C@@H]1OC(C)=O [Compound 9a, (2R,3R,4R,5R)-2-(4-aminopyrrolo[2,1-f][1,2,4]triazin-7-yl)-2-cyano-5-((((R)-(((S)-1-(2-ethylbutoxy)-1-oxopropan-2-yl)amino)((pivaloyloxy)methoxy)phosphoryl)oxy)methyl)tetrahydrofuran-3,4-diyl diacetate] and CCC(CC)COC(=O)[C@H](C)N[P@@](=O)(OCOC(=O)C(C)(C)C)OC[C@H]1O[C@@](C#N)(c2ccc3c(N)ncnn23)[C@H](OC(C)=O)[C@@H]1OC(C)=O [Compound 9b, (2R,3R,4R,5R)-2-(4-aminopyrrolo[2,1-f][1,2,4]triazin-7-yl)-2-cyano-5-((((S)-(((S)-1-(2-ethylbutoxy)-1-oxopropan-2-yl)amino)((pivaloyloxy)methoxy)phosphoryl)oxy)methyl)tetrahydrofuran-3,4-diyl diacetate] cannot be ordered by EC50: 5 to 10 nM for the first, ≤ 5 nM for the second.

Compared with CCC(=O)O[C@H]1[C@@H](OC(=O)CC)[C@](C#N)(c2ccc3c(N)ncnn23)O[C@@H]1CO[P@](=O)(N[C@@H](C)C(=O)OCC(CC)CC)OCOC(=O)C(C)(C)C [Compound 10a, (2R,3R,4R,5R)-2-(4-aminopyrrolo[2,1-f][1,2,4]triazin-7-yl)-2-cyano-5-((((R)-(((S)-1-(2-ethylbutoxy)-1-oxopropan-2-yl)amino)((pivaloyloxy)methoxy)phosphoryl)oxy)methyl)tetrahydrofuran-3,4-diyl dipropionate], CCC(=O)O[C@H]1[C@@H](OC(=O)CC)[C@](C#N)(c2ccc3c(N)ncnn23)O[C@@H]1CO[P@@](=O)(N[C@@H](C)C(=O)OCC(CC)CC)OCOC(=O)C(C)(C)C [Compound 10b, (2R,3R,4R,5R)-2-(4-aminopyrrolo[2,1-f][1,2,4]triazin-7-yl)-2-cyano-5-((((S)-(((S)-1-(2-ethylbutoxy)-1-oxopropan-2-yl)amino)((pivaloyloxy)methoxy)phosphoryl)oxy)methyl)tetrahydrofuran-3,4-diyl dipropionate] is lower in EC50: 10 to 50 nM for the first, ≤ 5 nM for the second.
